Target: acyl CoA: cholesterol acyltransferase (ACAT)
Experiment: Inhibiting activity against ACAT activity of rabbit's liver microsome
Format: biochemical
Conditions: rabbit's liver microsome enzyme fraction, 1-14C-oleoyl CoA, 37° C.; read-out: Inhibiting activity against ACAT activity: IC (M) 50%
Method: Inhibiting activity against acyl CoA: cholesterol acyltransferase (ACAT) activity of rabbit's liver microsome According to Heider's method [J. G. Heider et al., J. of Lipid Res. Vol. 24, 1127-34 (1983)], rabbit's liver microsome was treated to obtain enzyme fraction. To 0.154M of phosphoric acid buffer solution (pH 7.4), 2 mM of dithiothreitol, 36 μM of bovine serum albumin and 10 to 100 μg of microsome fraction, liposome prepared by Suckling's method [K. E. […] Then, 36 μM oleoyl CoA containing 1-^14 C-oleoyl CoA was added and the whole mixture was heated for 10 minutes at the temperature of 37° C. The reaction was ceased by adding chloroform/methanol (=2/1). Upon stirring, cholesterol oleate extracted into chloroform layer was separated by thin layer chromatography and the radioactivity was then determined as ACAT activity.

O=C(Nc1ccc(F)cc1F)N(Cc1cccc(CN(C(=O)Nc2ccc(F)cc2F)C2CCCCCC2)c1)C1CCCCCC1 [Example 1, 1,3-bis[[1-cycloheptyl-3-(2,4-difluorophenyl)ureido]methyl]benzene]
IC50: 1.8e-08 M

— patent US5091419A, “Diurea derivatives useful as medicaments and processes for the preparation thereof” (Yamanouchi Pharmaceutical Co., Ltd., priority 1988, dated 1992)
